The values below come from patent US8889688B2, “Piperazines as antimalarial agents” (Actelion Pharmaceuticals Ltd., priority 2011, dated 2014).

Usually pIC50 stands for the negative decadic logarithm of the IC50, by convention in mol/L.

The test relates to erythrocytic stages of P. falciparum NF54. Nature of the test: Plasmodium falciparum in vitro assay, [3H] hypoxanthine incorporation. The note with it: P. falciparum NF54 in human red blood cells, 48 h + 24 h incubation. The test is classed as cell-based. The protocol: In Vitro Antimalarial Activity: Plasmodium falciparum In Vitro Assay In vitro activity against erythrocytic stages of P. falciparum in human red blood cells is determined using a [^3H] hypoxanthine incorporation assay. […] Thereafter, the parasite cultures incubated in screening medium containing washed human red blood cells at 2.5% hematocrit (0.3% parasitemia) are added to the serially diluted compounds and incubated in a humidifying atmosphere at 37° C., 4% CO2, 3% O2, and 93% N2. After 48 h, [^3H] hypoxanthine (0.5 μCi) is added to each well of a plate. The plates are incubated for a further 24 h under the same conditions then harvested with a Betaplate cell harvester (Wallac) and washed with distilled water. The dried filters are inserted into a plastic foil with 10 mL of scintillation fluid, and counted in a Betaplate liquid scintillation counter. IC50 values are calculated from sigmoidal inhibition curves using Microsoft Excel.

Setting [1] is: Plasmodium falciparum, Erythrocyte, 72 h, screening medium with Albumax (5 g/L), read-out: IC50 on NF54 (with Albumax).
Where [2] appears, read: Plasmodium falciparum, Erythrocyte, 72 h, screening medium with human serum (50% final concentration), read-out: IC50 on NF54 (with 50% Serum).

pIC50: −log10 of the molar value. Where two headings read alike, the source gives them in different places.

In the case of `CC(=O)N1CCN(c2ccc(CN(C(=O)C=Cc3ccc(C(F)(F)F)cc3)[C@@H](Cc3ccccc3)C(=O)N3CCN(Cc4ccc(N(C)C)cc4)CC3)cc2)CC1` [Example 11, (S)-N-[4-(4-Acetyl-piperazin-1-yl)-benzyl]-N-{1-benzyl-2-[4-(4-dimethylamino-benzyl)-piperazin-1-yl]-2-oxo-ethyl}-3-(4-trifluoromethyl-phenyl)-acrylamide], the negative logarithm of the IC50 (pIC50) was 8.40 under setting [1] and 7.68 under setting [2].

Take `CC(=O)N1CCN(c2ccc(CN(C(=O)C=Cc3ccc(C(F)(F)F)nc3)[C@@H](Cc3ccccc3)C(=O)N3CCN(Cc4ccc(N(C)C)cc4)CC3)cc2)CC1` [Example 12, (S)-N-[4-(4-Acetyl-piperazin-1-yl)-benzyl]-N-{1-benzyl-2-[4-(4-dimethylamino-benzyl)-piperazin-1-yl]-2-oxo-ethyl}-3-(6-trifluoromethyl-pyridin-3-yl)-acrylamide]: the negative-log IC50 (pIC50) was 7.77 under setting [1] and 7.13 under setting [2].

With `COc1ccc(C=CC(=O)N(Cc2ccc(N3CCN(C(C)=O)CC3)cc2)[C@@H](Cc2ccccc2)C(=O)N2CCN(Cc3ccc(N(C)C)cc3)CC2)cn1` [Example 13, (S)-N-[4-(4-Acetyl-piperazin-1-yl)-benzyl]-N-{1-benzyl-2-[4-(4-dimethylamino-benzyl)-piperazin-1-yl]-2-oxo-ethyl}-3-(6-methoxy-pyridin-3-yl)-acrylamide], the pIC50 runs as follows: under setting [1], 7.92; under setting [2], 7.34.

As for `CCOc1ccc(C=CC(=O)N(Cc2ccc(N3CCN(C(C)=O)CC3)cc2)[C@@H](Cc2ccccc2)C(=O)N2CCN(Cc3ccc(N(C)C)cc3)CC2)cn1` [Example 14, (S)-N-[4-(4-Acetyl-piperazin-1-yl)-benzyl]-N-{1-benzyl-2-[4-(4-dimethylamino-benzyl)-piperazin-1-yl]-2-oxo-ethyl}-3-(6-ethoxy-pyridin-3-yl)-acrylamide], the pIC50 under setting [1] is 8.43 and the pIC50 under setting [2] was 7.70.

For the compound `CC(=O)Nc1ccc(C=CC(=O)N(Cc2ccc(N3CCN(C(C)=O)CC3)cc2)[C@@H](Cc2ccccc2)C(=O)N2CCN(Cc3ccc(N(C)C)cc3)CC2)cc1` [Example 17, (S)-3-(4-Acetylamino-phenyl)-N-[4-(4-acetyl-perazin-1-yl)-benzyl]-N-{1-benzyl-2-[4-(4-dimethylamino-benzyl)-piperazin-1-yl]-2-oxo-ethyl}-acrylamide], the negative-log IC50 (pIC50) was 8.37 (screening medium with Albumax (5 g/L), read-out: IC50 on NF54 (with Albumax)) and 7.41 (screening medium with human serum (50% final concentration), read-out: IC50 on NF54 (with 50% Serum)).

Regarding `CC(=O)N1CCN(c2ccc(CN(C(=O)C=Cc3ccc(S(C)(=O)=O)cc3)[C@@H](Cc3ccccc3)C(=O)N3CCN(Cc4ccc(C#N)cc4)CC3)cc2)CC1` [Example 26, (S)-N-[4-(4-Acetyl-piperazin-1-yl)-benzyl]-N-{1-benzyl-2-[4-(4-cyano-benzyl)-piperazin-1-yl]-2-oxo-ethyl}-3-(4-methanesulfonyl-phenyl)-acrylamide], the pIC50 was 7.74 under setting [1] and 7.48 under setting [2].

In the case of `CC(=O)Nc1ccc(C=CC(=O)N(Cc2ccc(N3CCN(C(C)=O)CC3)cc2)[C@@H](Cc2ccccc2)C(=O)N2CCN(Cc3ccc(Cl)cc3)CC2)cc1` [Example 37, (S)-3-(4-Acetylamino-phenyl)-N-[4-(4-acetyl-piperazin-1-yl)-benzyl]-N-{1-benzyl-2-[4-(4-chloro-benzyl)-piperazin-1-yl]-2-oxo-ethyl}-acrylamide], the negative logarithm of the IC50 (pIC50) reads like this: under setting [1], 8.49; under setting [2], 7.55.

`CC(=O)N1CCN(c2ccc(CN(C(=O)C=Cc3ccc(C(F)(F)F)nc3)[C@@H](Cc3ccccc3)C(=O)N3CCN(Cc4ccc(N(C)CCO)cc4)CC3)cc2)CC1` [Example 51, (S)-N-[4-(4-Acetyl-piperazin-1-yl)-benzyl]-N-[1-benzyl-2-(4-{4-[(2-hydroxy-ethyl)-methyl-amino]-benzyl}-piperazin-1-yl)-2-oxo-ethyl]-3-(6-trifluoromethyl-pyridin-3-yl)-acrylamide]: the pIC50 was 7.97 under setting [1] and 7.53 under setting [2].

For `COc1ccc(CN2CCN(C(=O)[C@H](Cc3ccccc3)N(Cc3ccc(N4CCN(C(C)=O)CC4)cc3)C(=O)C=Cc3ccc(C(F)(F)F)cc3)CC2)cc1` [Example 63, (S)-N-[4-(4-Acetyl-piperazin-1-yl)-benzyl]-N-{1-benzyl-2-[4-(4-methoxy-benzyl)-piperazin-1-yl]-2-oxo-ethyl}-3-(4-trifluoromethyl-phenyl)-acrylamide], the pIC50 reads like this: under setting [1], 8.49; under setting [2], 7.75.

For `CC(=O)N1CCN(c2ccc(CN(C(=O)C=Cc3ccc(C(F)(F)F)cc3)[C@@H](Cc3ccccc3)C(=O)N3CCN(Cc4ccc([N+](=O)[O-])cc4)CC3)cc2)CC1` [Example 64, (S)-N-[4-(4-Acetyl-piperazin-1-yl)-benzyl]-N-{1-benzyl-2-[4-(4-nitro-benzyl)-piperazin-1-yl]-2-oxo-ethyl}-3-(4-trifluoromethyl-phenyl)-acrylamide], the negative-log IC50 (pIC50) reads like this: under setting [1], 8.46; under setting [2], 7.37.

Regarding `CC(=O)N1CCN(c2ccc(CN(C(=O)C=Cc3ccc(C(F)(F)F)cc3)[C@@H](Cc3ccccc3)C(=O)N3CCN(Cc4ccc(OC(C)C)cc4)CC3)cc2)CC1` [Example 65, (S)-N-[4-(4-Acetyl-piperazin-1-yl)-benzyl]-N-{1-benzyl-2-[4-(4-isopropoxy-benzyl)-piperazin-1-yl]-2-oxo-ethyl}-3-(4-trifluoromethyl-phenyl)-acrylamide], the pIC50 reads like this: under setting [1], 8.55; under setting [2], 7.85.

For the compound `CC(=O)N1CCN(c2ccc(CN(C(=O)C=Cc3ccccc3)[C@@H](Cc3ccccc3)C(=O)N3CCN(Cc4ccc(N(C)C)cc4)CC3)cc2)CC1` [Example 66, (S)-N-[4-(4-Acetyl-piperazin-1-yl)benzyl]-N-{1-(4-(4-(dimethylamino)benzyl)piperazin-1-yl)-1-oxo-3-phenylpropan-2-yl}cinnamamide], the pIC50 by setting is: under setting [1], 7.61; under setting [2], 6.95.

On to `CC(=O)N1CCN(c2ccc(CN(C(=O)C=Cc3ccc(C)cc3)[C@@H](Cc3ccccc3)C(=O)N3CCN(Cc4ccc(N(C)C)cc4)CC3)cc2)CC1` [Example 67, (S)-N-[4-(4-Acetyl-piperazin-1-yl)benzyl]-N-{1-[4-(4-(dimethylamino)benzyl)piperazin-1-yl]-1-oxo-3-phenylpropan-2-yl}-3-(p-tolyl)acrylamide], for which the negative-log IC50 (pIC50) was greater than 8.51 under setting [1] and 7.76 under setting [2].

With `CCCc1ccc(C=CC(=O)N(Cc2ccc(N3CCN(C(C)=O)CC3)cc2)[C@@H](Cc2ccccc2)C(=O)N2CCN(Cc3ccc(N(C)C)cc3)CC2)cc1` [Example 68, (S)-N-[4-(4-Acetyl-piperazin-1-yl)benzyl]-N-{1-(4-(4-(dimethylamino)benzyl)piperazin-1-yl)-1-oxo-3-phenylpropan-2-yl}-3-(4-propylphenyl)acrylamide], the pIC50 by setting is: under setting [1], 9.15; under setting [2], 8.10.

As for `COc1ccc(C=CC(=O)N(Cc2ccc(N3CCN(C(C)=O)CC3)cc2)[C@@H](Cc2ccccc2)C(=O)N2CCN(Cc3ccc(N(C)C)cc3)CC2)cc1` [Example 69, (S)-N-[4-(4-Acetyl-piperazin-1-yl)benzyl]-N-{1-(4-(4-(dimethylamino)benzyl)piperazin-1-yl)-1-oxo-3-phenylpropan-2-yl}-3-(4-methoxyphenyl)acrylamide], the pIC50 was greater than 8.51 under setting [1] and 7.77 under setting [2].
